Test results from patent US20250325517A1, “ORAL DOSAGE FORMS OF ELRAGLUSIB” (Actuate Therapeutics, Inc., priority 2022, published 2025).

Assay: Kinetic solubility of six ASDs in biorelevant media (SGF, FaSSIF, FeSSIF) at 37° C., 1 and 2 h
Type: physicochemical
Experimental: The three biorelevant media were: SGF, FaSSIF, and FeSSIF. These were prepared using procedure and FaSSIF/FeSSIF/FaSSGF Powder obtained from Biorelevant.com (https://biorelevant.com/learning_center/how-make-fassif/). A suspension of each ASD was prepared in SGF, FaSSIF, and FeSSIF and each was allowed to stir at 400 rpm. An aliquot of the supernatant was taken out at 1 and 2 hours, syringe filtered using a cellulose acetate filter ([…] pore size) and analyzed by HPLC. The solubilities of each ASD in SGF, FaSSIF, and FeSSIF are presented in Table 2A-8, Table 2A-9, and Table 2A-10, respectively. […] In addition, at 2 hours the remaining solids were analyzed by XRPD. […] These peaks correspond to residual FeSSIF buffer crystallizing on the ASD solids upon drying. (See Tables 2A-8, -9, and -10).

Cn1cc(C2=C(c3coc4ccc(F)cc34)C(=O)NC2=O)c2cc3c(cc21)OCO3 [NA]
1 hr solubility in FeSSIF (n = 2) (37° C., 400 rpm): 5 µg/mL | 2 hr solubility in FeSSIF (n = 2) (37° C., 400 rpm): 6 µg/mL | XRPD after FeSSIF (solids remaining at 2 hours): Form I + one peak ~9°
